Measured values published in ChEMBL document CHEMBL3414527, “Engineering potent and selective analogues of GpTx-1, a tarantula venom peptide antagonist of the Na(V)1.7 sodium channel” (J Med Chem, 2015).
Bridge positions count the residues as written; N and C are the ends. Peptide text beside a SMILES is read from it.

What was measured:
[1] = target: Sodium channel protein type 5 subunit alpha (Homo sapiens, UniProt Q14524); test: Inhibition of human NaV1.5 at -140 mV holding potential by whole-cell patch clamp assay
[2] = target: Sodium channel protein type 4 subunit alpha (Homo sapiens, UniProt P35499); test: Inhibition of human NaV1.4 at -140 mV holding potential by whole-cell patch clamp assay
[3] = target: T1, Sodium channel protein type 9 subunit alpha (Homo sapiens, UniProt Q15858); test: Inhibition of human NaV1.7 at -140 mV holding potential by whole-cell patch clamp assay
[4] = target: Sodium channel protein type 9 subunit alpha (Mus musculus, UniProt Q62205); test: Inhibition of NaV1.7 in C57BL/6 mouse DRG neurons at -140 mV holding potential by whole-cell patch clamp assay
[5] = target: T1, Sodium channel protein type 9 subunit alpha; test: Inhibition of human NaV1.7 by patchXpress 700A electrophysiology method
[6] = Stability in human plasma assessed as intact compound remaining at 37 degC after 24 hrs by LC-MS method; assay type: ADME, cell-free; conditions: read-out: Stability
[7] = Stability in mouse plasma assessed as intact compound remaining at 37 degC after 24 hrs by LC-MS method; assay type: ADME, cell-free; conditions: read-out: Stability

Chain of Sodium channel protein type 4 subunit alpha (P35499 whole entry): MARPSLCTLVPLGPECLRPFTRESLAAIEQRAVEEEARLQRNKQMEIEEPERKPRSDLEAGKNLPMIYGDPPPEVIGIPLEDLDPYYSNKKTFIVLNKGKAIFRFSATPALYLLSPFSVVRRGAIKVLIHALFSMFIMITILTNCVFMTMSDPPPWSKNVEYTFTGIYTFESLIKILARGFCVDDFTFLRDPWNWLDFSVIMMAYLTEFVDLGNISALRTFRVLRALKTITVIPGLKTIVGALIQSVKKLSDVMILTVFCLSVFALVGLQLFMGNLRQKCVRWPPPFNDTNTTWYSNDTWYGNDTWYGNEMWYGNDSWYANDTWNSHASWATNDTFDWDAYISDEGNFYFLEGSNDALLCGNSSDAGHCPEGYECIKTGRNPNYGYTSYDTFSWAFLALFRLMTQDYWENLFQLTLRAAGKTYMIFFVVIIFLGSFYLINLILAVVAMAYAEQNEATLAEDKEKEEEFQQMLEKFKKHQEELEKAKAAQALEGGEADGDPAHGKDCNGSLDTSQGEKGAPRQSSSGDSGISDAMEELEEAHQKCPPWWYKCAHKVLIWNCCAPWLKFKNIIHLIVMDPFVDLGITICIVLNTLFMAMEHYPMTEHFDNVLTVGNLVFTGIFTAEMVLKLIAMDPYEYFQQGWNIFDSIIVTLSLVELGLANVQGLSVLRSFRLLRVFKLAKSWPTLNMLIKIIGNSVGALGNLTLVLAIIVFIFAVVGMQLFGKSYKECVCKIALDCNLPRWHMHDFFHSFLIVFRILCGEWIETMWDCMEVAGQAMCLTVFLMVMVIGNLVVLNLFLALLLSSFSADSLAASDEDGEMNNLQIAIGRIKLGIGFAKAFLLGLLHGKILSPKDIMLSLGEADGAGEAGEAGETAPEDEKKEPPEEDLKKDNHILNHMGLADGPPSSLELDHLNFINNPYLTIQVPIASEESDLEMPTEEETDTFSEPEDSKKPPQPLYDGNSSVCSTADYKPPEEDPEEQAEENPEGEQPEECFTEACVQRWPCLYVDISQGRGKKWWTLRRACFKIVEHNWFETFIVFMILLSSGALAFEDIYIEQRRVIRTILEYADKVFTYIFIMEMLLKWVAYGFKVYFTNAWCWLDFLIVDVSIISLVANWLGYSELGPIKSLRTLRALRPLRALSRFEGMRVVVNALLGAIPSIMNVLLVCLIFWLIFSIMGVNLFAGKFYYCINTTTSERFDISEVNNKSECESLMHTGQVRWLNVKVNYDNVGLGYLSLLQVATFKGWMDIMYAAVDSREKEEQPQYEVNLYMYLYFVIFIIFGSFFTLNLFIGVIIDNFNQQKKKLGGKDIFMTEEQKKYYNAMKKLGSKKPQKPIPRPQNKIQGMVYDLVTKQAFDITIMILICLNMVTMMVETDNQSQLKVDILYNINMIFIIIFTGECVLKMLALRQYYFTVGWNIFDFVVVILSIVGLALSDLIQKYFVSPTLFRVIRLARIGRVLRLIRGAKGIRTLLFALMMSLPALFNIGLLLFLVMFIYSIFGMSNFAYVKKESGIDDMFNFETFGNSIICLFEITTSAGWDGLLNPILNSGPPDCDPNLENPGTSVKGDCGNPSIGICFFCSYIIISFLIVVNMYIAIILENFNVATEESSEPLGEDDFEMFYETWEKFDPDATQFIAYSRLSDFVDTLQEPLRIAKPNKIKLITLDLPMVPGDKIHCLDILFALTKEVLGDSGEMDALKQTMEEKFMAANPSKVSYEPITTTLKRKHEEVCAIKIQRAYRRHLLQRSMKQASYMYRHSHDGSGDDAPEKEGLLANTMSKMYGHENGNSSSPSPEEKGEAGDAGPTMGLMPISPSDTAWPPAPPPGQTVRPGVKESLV
Chain of Sodium channel protein type 5 subunit alpha (Q14524 whole entry): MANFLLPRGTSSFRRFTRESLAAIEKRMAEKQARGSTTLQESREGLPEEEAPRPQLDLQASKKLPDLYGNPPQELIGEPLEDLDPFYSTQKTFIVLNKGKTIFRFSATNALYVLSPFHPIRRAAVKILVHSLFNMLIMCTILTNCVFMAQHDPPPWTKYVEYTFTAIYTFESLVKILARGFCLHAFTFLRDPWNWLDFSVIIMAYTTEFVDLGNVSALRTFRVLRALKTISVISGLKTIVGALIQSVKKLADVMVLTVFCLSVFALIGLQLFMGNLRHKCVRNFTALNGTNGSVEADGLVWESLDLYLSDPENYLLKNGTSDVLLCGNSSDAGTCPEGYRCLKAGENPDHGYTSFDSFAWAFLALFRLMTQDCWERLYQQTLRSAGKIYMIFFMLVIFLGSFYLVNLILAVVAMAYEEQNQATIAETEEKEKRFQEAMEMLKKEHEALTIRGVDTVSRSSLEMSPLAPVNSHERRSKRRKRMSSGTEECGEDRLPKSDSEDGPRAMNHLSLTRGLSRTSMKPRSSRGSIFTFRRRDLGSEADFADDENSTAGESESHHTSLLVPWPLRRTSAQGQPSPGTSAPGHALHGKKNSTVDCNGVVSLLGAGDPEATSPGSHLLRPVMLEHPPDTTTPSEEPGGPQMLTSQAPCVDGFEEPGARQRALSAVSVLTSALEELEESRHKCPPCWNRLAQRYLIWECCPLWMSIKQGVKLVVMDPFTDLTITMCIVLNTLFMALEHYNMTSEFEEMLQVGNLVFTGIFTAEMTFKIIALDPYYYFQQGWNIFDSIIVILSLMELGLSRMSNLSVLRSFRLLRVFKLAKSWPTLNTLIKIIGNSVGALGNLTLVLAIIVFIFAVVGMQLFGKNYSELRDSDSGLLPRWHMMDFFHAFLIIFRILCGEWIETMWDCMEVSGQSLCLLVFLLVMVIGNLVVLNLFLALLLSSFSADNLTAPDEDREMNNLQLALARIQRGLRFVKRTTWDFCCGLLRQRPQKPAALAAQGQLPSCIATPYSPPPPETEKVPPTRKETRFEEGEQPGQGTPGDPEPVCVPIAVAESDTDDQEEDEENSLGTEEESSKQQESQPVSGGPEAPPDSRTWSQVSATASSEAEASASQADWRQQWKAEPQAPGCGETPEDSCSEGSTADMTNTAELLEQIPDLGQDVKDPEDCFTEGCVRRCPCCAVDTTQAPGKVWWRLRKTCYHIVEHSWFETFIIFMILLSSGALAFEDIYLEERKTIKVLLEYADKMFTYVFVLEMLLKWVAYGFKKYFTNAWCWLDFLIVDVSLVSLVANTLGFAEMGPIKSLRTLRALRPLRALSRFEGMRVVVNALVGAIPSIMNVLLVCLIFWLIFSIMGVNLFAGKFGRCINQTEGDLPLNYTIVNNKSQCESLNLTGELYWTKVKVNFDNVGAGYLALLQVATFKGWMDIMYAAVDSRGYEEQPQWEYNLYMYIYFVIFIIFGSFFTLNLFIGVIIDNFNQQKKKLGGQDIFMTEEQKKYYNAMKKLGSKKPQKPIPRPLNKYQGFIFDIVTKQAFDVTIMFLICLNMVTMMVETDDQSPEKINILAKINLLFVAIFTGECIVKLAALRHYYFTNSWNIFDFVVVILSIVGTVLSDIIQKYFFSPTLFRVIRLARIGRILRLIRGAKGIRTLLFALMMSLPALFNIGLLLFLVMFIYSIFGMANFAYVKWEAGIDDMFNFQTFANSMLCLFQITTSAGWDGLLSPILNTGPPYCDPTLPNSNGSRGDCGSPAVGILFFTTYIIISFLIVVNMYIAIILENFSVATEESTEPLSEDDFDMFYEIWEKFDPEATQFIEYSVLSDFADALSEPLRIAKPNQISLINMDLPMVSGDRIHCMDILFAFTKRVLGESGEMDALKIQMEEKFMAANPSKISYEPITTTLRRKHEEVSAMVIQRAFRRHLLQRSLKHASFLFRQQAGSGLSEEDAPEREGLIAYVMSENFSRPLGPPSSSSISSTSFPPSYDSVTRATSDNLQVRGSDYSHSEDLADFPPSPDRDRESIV

Question: For CSCC[C@@H]1NC(=O)CNC(=O)[C@H](CCC(=O)O)NC(=O)[C@@H]2CSSC[C@H](NC(=O)[C@@H](N)Cc3ccc(O)cc3)C(=O)N[C@@H](CCC(N)=O)C(=O)N[C@@H](CCCCN)C(=O)N[C@@H](Cc3c[nH]c4ccccc34)C(=O)N[C@@H](CCSC)C(=O)N[C@@H](Cc3c[nH]c4ccccc34)C(=O)N[C@@H]([C@@H](C)O)C(=O)N[C@H]3CSSC[C@H](NC(=O)[C@H](C(C)C)NC1=O)C(=O)N[C@@H](CCCNC(=N)N)C(=O)N[C@@H](CC(C)C)C(=O)N[C@@H](Cc1c[nH]c4ccccc14)C(=O)N[C@H](C(=O)N[C@@H](CCCCN)C(=O)N[C@@H](CCCCN)C(=O)N[C@@H](CCCCN)C(=O)N[C@@H](CC(C)C)C(=O)N[C@@H](Cc1c[nH]c4ccccc14)C(=O)O)CSSC[C@H](NC(=O)[C@H](CCCCN)NC(=O)[C@H](CCCNC(=N)N)NC(=O)[C@H](CCC(=O)O)NC(=O)[C@H](CO)NC(=O)[C@H](CC(=O)O)NC3=O)C(=O)N2, which IC50 [1] is on record?
Answer: 0.09 µM

Question: And the IC50 [2]?
Answer: 30 nM

Question: Which IC50 [3] does the source give for CC[C@H](C)[C@@H]1NC(=O)[C@@H]2CSSC[C@@H]3NC(=O)[C@H](C(C)C)NC(=O)[C@H](CC(C)C)NC(=O)[C@H](CC(N)=O)NC(=O)[C@@H]4CCCN4C(=O)[C@H](CCCNC(=N)N)NC(=O)[C@H](CSSC[C@H](NC(=O)[C@@H](N)CC(=O)O)C(=O)N[C@@H](CC(C)C)C(=O)NCC(=O)N[C@@H](C)C(=O)N[C@@H](CCSC)C(=O)N[C@@H](CCCNC(=N)N)C(=O)N[C@@H](CCCCN)C(=O)N2)NC(=O)[C@H](CSSC[C@@H](C(=O)N[C@@H](CCCCN)C(=O)N[C@@H](Cc2ccc(O)cc2)C(=O)N[C@H](C(=O)N[C@@H](Cc2ccccc2)C(N)=O)C(C)C)NC(=O)[C@H](Cc2c[nH]c4ccccc24)NC(=O)[C@H](CCCCN)NC(=O)[C@H](Cc2cnc[nH]2)NC(=O)[C@H]([C@@H](C)O)NC(=O)[C@H](CCCNC(=N)N)NC(=O)[C@H](CO)NC3=O)NC(=O)[C@H](CCCCN)NC(=O)[C@H](CC(=O)O)NC(=O)[C@H](CC(N)=O)NC(=O)[C@H](CC(=O)O)NC(=O)[C@@H]2CCCN2C1=O (H-DCLGAMRKCIPDNDKCCRPNLVCSRTHKWCKYVF-NH2; disulfide 2-17, 9-23, 16-30) here?
Answer: 630 nM

Question: What about the IC50 [1] of the same molecule?
Answer: 27 µM

Question: And the IC50 [4]?
Answer: 22.6 nM

Question: And the IC50 [5]?
Answer: 27 nM

Question: What about the remaining at 24 h [6] of the same molecule?
Answer: 99%

Question: And the remaining at 24 h [7]?
Answer: 99%

Question: Which IC50 [3] does the source give for CC[C@H](C)[C@H](NC(=O)[C@H](CCC(N)=O)NC(=O)[C@H](Cc1ccc(O)cc1)NC(=O)[C@H](CCCCN)NC(=O)[C@@H]1CSSC[C@@H]2NC(=O)[C@H](CCC(N)=O)NC(=O)[C@H](CC(=O)O)NC(=O)[C@H](CC(N)=O)NC(=O)[C@H](CO)NC(=O)[C@@H]3CCCN3C(=O)[C@H](CC(N)=O)NC(=O)[C@@H]3CSSC[C@H](NC(=O)[C@H](C(C)C)NC(=O)[C@H](CC(C)C)NC(=O)[C@H](CCCCN)NC(=O)[C@H](CO)NC(=O)[C@H](CO)NC(=O)[C@H](CCCCN)NC(=O)[C@H](CSSC[C@H](NC(=O)[C@@H](N)CCC(=O)O)C(=O)N[C@@H](CC(C)C)C(=O)N[C@@H](CCC(=O)O)C(=O)N[C@@H]([C@@H](C)CC)C(=O)N[C@@H](Cc4ccccc4)C(=O)N[C@@H](CCCCN)C(=O)N[C@@H](C)C(=O)N3)NC2=O)C(=O)N[C@@H](CO)C(=O)N[C@@H](CCCNC(=N)N)C(=O)N[C@@H](CCCCN)C(=O)N[C@@H]([C@@H](C)O)C(=O)N[C@@H](CCCNC(=N)N)C(=O)N[C@@H](Cc2c[nH]c3ccccc23)C(=O)N1)C(=O)O here?
Answer: 33 nM

Question: And the IC50 [1]?
Answer: 25 µM

Question: And the IC50 [2]?
Answer: 3900 nM

Question: For CC[C@H](C)[C@@H]1NC(=O)[C@@H]2CSSC[C@@H]3NC(=O)[C@H](C(C)C)NC(=O)[C@H](CC(C)C)NC(=O)[C@H](CC(N)=O)NC(=O)[C@@H]4CCCN4C(=O)[C@H](CCCNC(=N)N)NC(=O)[C@H](CSSC[C@H](NC(=O)[C@@H](N)CC(=O)O)C(=O)N[C@@H](CC(C)C)C(=O)NCC(=O)N[C@@H](Cc4ccccc4)C(=O)N[C@@H](CCSC)C(=O)N[C@@H](CCCNC(=N)N)C(=O)N[C@@H](CCCCN)C(=O)N2)NC(=O)[C@H](CSSC[C@@H](C(=O)N[C@@H](CCCCN)C(=O)N[C@@H](Cc2ccc(O)cc2)C(=O)N[C@H](C(=O)N[C@@H](Cc2ccccc2)C(N)=O)C(C)C)NC(=O)[C@H](Cc2c[nH]c4ccccc24)NC(=O)[C@H](CCCCN)NC(=O)[C@H](Cc2cnc[nH]2)NC(=O)[C@H](CCC(=O)O)NC(=O)[C@H](CCCNC(=N)N)NC(=O)[C@H](CO)NC3=O)NC(=O)[C@H](CCCCN)NC(=O)[C@H](CC(=O)O)NC(=O)[C@H](CC(N)=O)NC(=O)[C@H](CC(=O)O)NC(=O)[C@@H]2CCCN2C1=O (H-DCLGFMRKCIPDNDKCCRPNLVCSREHKWCKYVF-NH2; disulfide 2-17, 9-23, 16-30), which IC50 [3] is on record?
Answer: 34 nM

Question: What about the IC50 [1] of the same molecule?
Answer: > 10 µM

Question: Which IC50 [3] does the source give for N=C(N)NCCC[C@@H]1NC(=O)[C@H](CO)NC(=O)[C@H](Cc2c[nH]cn2)NC(=O)[C@H](CC(=O)O)NC(=O)[C@H](CCCNC(=N)N)NC(=O)[C@H]2CSSC[C@@H]3NC(=O)[C@@H](N)CSSC[C@H](NC1=O)C(=O)N[C@H](C(=O)O)CSSC[C@H](NC(=O)[C@H](CC(N)=O)NC3=O)C(=O)N[C@@H](CO)C(=O)N[C@@H](CO)C(=O)N[C@@H](CCCCN)C(=O)N[C@@H](Cc1c[nH]c3ccccc13)C(=O)N2 here?
Answer: 460 nM

Question: And the IC50 [1]?
Answer: > 25 µM

Question: What about the IC50 [2] of the same molecule?
Answer: 20 nM

Question: With CC[C@H](C)[C@@H]1NC(=O)[C@@H]2CSSC[C@@H]3NC(=O)[C@H](C(C)C)NC(=O)[C@H](CC(C)C)NC(=O)[C@H](CC(N)=O)NC(=O)[C@@H]4CCCN4C(=O)[C@H](CCCNC(=N)N)NC(=O)[C@H](CSSC[C@H](NC(=O)[C@@H](N)CC(=O)O)C(=O)N[C@@H](CC(C)C)C(=O)NCC(=O)N[C@@H](Cc4ccccc4)C(=O)N[C@@H](CCSC)C(=O)N[C@@H](CCCNC(=N)N)C(=O)N[C@@H](CCCCN)C(=O)N2)NC(=O)[C@H](CSSC[C@@H](C(=O)N[C@@H](CCCCN)C(=O)N[C@@H](Cc2ccc(O)cc2)C(=O)N[C@H](C(=O)N[C@@H](Cc2ccccc2)C(N)=O)C(C)C)NC(=O)[C@H](Cc2c[nH]c4ccccc24)NC(=O)[C@H](CCCCN)NC(=O)[C@H](C)NC(=O)[C@H]([C@@H](C)O)NC(=O)[C@H](CCCNC(=N)N)NC(=O)[C@H](CO)NC3=O)NC(=O)[C@H](CCCCN)NC(=O)[C@H](CC(=O)O)NC(=O)[C@H](CC(N)=O)NC(=O)[C@H](CC(=O)O)NC(=O)[C@@H]2CCCN2C1=O (H-DCLGFMRKCIPDNDKCCRPNLVCSRTAKWCKYVF-NH2; disulfide 2-17, 9-23, 16-30) as the molecule, how does the IC50 [3] read?
Answer: 970 nM

Question: And the IC50 [1]?
Answer: > 5 µM

Question: What does the source list for CC[C@H](C)[C@@H]1NC(=O)[C@@H]2CSSC[C@@H]3NC(=O)[C@H](C(C)C)NC(=O)[C@H](CC(C)C)NC(=O)[C@H](CC(N)=O)NC(=O)[C@@H]4CCCN4C(=O)[C@H](CCCNC(=N)N)NC(=O)[C@H](CSSC[C@H](NC(=O)[C@@H](N)CC(=O)O)C(=O)N[C@@H](CC(C)C)C(=O)NCC(=O)N[C@@H](Cc4ccc(I)cc4)C(=O)N[C@@H](CCSC)C(=O)N[C@@H](CCCNC(=N)N)C(=O)N[C@@H](CCCCN)C(=O)N2)NC(=O)[C@H](CSSC[C@@H](C(=O)N[C@@H](CCCCN)C(=O)N[C@@H](Cc2ccc(O)cc2)C(=O)N[C@H](C(=O)N[C@@H](Cc2ccccc2)C(N)=O)C(C)C)NC(=O)[C@H](Cc2c[nH]c4ccccc24)NC(=O)[C@H](CCCCN)NC(=O)[C@H](Cc2cnc[nH]2)NC(=O)[C@H]([C@@H](C)O)NC(=O)[C@H](CCCNC(=N)N)NC(=O)[C@H](CO)NC3=O)NC(=O)[C@H](CCCCN)NC(=O)[C@H](CC(=O)O)NC(=O)[C@H](CC(N)=O)NC(=O)[C@H](CC(=O)O)NC(=O)[C@@H]2CCCN2C1=O?
Answer: IC50 [3]: 236 nM; IC50 [1]: > 10 µM

Question: For CC[C@H](C)[C@@H]1NC(=O)[C@@H]2CSSC[C@@H]3NC(=O)[C@H](C(C)C)NC(=O)[C@H](CC(C)C)NC(=O)[C@H](CC(N)=O)NC(=O)[C@@H]4CCCN4C(=O)[C@H](CCCNC(=N)N)NC(=O)[C@H](CSSC[C@H](NC(=O)[C@@H](N)CC(=O)O)C(=O)N[C@@H](CC(C)C)C(=O)NCC(=O)N[C@@H](Cc4ccccc4)C(=O)N[C@@H](CCSC)C(=O)N[C@@H](CCCNC(=N)N)C(=O)N[C@@H](CCCCN)C(=O)N2)NC(=O)[C@H](CSSC[C@@H](C(=O)N[C@@H](CCCCN)C(=O)N[C@@H](Cc2ccc(O)cc2)C(=O)N[C@H](C(=O)N[C@@H](Cc2ccccc2)C(N)=O)C(C)C)NC(=O)[C@H](Cc2c[nH]c4ccccc24)NC(=O)[C@H](CCCCN)NC(=O)[C@H](Cc2cnc[nH]2)NC(=O)[C@H](CC(C)C)NC(=O)[C@H](CCCNC(=N)N)NC(=O)[C@H](CO)NC3=O)NC(=O)[C@H](CCCCN)NC(=O)[C@H](CC(=O)O)NC(=O)[C@H](CC(N)=O)NC(=O)[C@H](CC(=O)O)NC(=O)[C@@H]2CCCN2C1=O (H-DCLGFMRKCIPDNDKCCRPNLVCSRLHKWCKYVF-NH2; disulfide 2-17, 9-23, 16-30), which IC50 [3] is on record?
Answer: 4 nM

Question: And the IC50 [1]?
Answer: 4.6 µM

Question: Which IC50 [3] does the source give for CC[C@H](C)[C@@H]1NC(=O)[C@@H]2CSSC[C@@H]3NC(=O)[C@H](C(C)C)NC(=O)[C@H](CC(C)C)NC(=O)[C@H](CC(N)=O)NC(=O)[C@@H]4CCCN4C(=O)[C@H](CCCNC(=N)N)NC(=O)[C@H](CSSC[C@H](NC(=O)[C@@H](N)CC(=O)O)C(=O)N[C@@H](CC(C)C)C(=O)NCC(=O)N[C@@H](Cc4ccccc4)C(=O)N[C@@H](CCSC)C(=O)N[C@@H](CCCNC(=N)N)C(=O)N[C@@H](C)C(=O)N2)NC(=O)[C@H](CSSC[C@@H](C(=O)N[C@@H](CCCCN)C(=O)N[C@@H](Cc2ccc(O)cc2)C(=O)N[C@H](C(=O)N[C@@H](Cc2ccccc2)C(N)=O)C(C)C)NC(=O)[C@H](Cc2c[nH]c4ccccc24)NC(=O)[C@H](CCCCN)NC(=O)[C@H](Cc2cnc[nH]2)NC(=O)[C@H]([C@@H](C)O)NC(=O)[C@H](CCCNC(=N)N)NC(=O)[C@H](CO)NC3=O)NC(=O)[C@H](CCCCN)NC(=O)[C@H](CC(=O)O)NC(=O)[C@H](CC(N)=O)NC(=O)[C@H](CC(=O)O)NC(=O)[C@@H]2CCCN2C1=O (H-DCLGFMRACIPDNDKCCRPNLVCSRTHKWCKYVF-NH2; disulfide 2-17, 9-23, 16-30) here?
Answer: 500 nM

Question: What about the IC50 [1] of the same molecule?
Answer: > 5 µM
